The text below walks through data of publication PMC7461568, “Novel Cyclic Lipopeptide Antibiotics: Effects of Acyl Chain Length and Position” (International Journal of Molecular Sciences, 2020).

One data set has as its system S. aureus ATCC 29213. Description: microbe, parasite or virus in culture. It counts as cell-based, Staphylococcus aureus. The conditions noted are these: S. aureus ATCC 29213; MHB-II, inoculum 5 × 10^5 CFU/mL, 37 °C, 18–24 h, visual read-out, triplicate. How it is done:
(§1) In the original report on S3(B), MIC experiments were carried out by using non-cation-adjusted MHB-I media. To this, bovine serum albumin (BSA) and acetic acid were added. The rationale for choosing a medium without cations is that cation-adjusted media (MHB-II) in some cases causes substantial inhibition of the activity of cationic peptides. Furthermore, some peptides are at risk of precipitation when diluted into MHB medium, which can be avoided via the addition of BSA and acetic acid. However, the use of MHB-II is favorable to imitate the in vivo conditions as much as possible. Both media were tested with and without the addition of BSA and acetic acid by trial and error. […]
(§2) Cation-adjusted Mueller-Hinton broth (MHB-II) media (BD BBLTM Beef extract powder, BD BactoTMCasamino acids, and DIFCO soluble starch was from Becton, Dickinson and Company©, Franklin Lakes, NJ, USA). […] A VersaMaxTM Tunable Microplate Reader (Molecular Devices LLC, Sunnyvale, CA, USA) was used and the data were evaluated on a Softmax® Pro (Molecular Devices LLC).
(§3) The MIC experiments were performed according to a protocol adapted from Wiegand et al., with minor modifications. The MICs were determined in triplicate. […] The MIC values were visually evaluated, and the MIC was set to the lowest concentration […] based on triplicate measurements. […]

Another data set relates to E. coli ATCC 25922. It counts as cell-based, Escherichia coli. The settings on record: MHB-II, inoculum 5 × 10^5 CFU/mL, 37 °C, 18–24 h, visual read-out, triplicate. The method, then: (§4) In the original report on S3(B), MIC experiments were carried out by using non-cation-adjusted MHB-I media. To this, bovine serum albumin (BSA) and acetic acid were added. The rationale for choosing a medium without cations is that cation-adjusted media (MHB-II) in some cases causes substantial inhibition of the activity of cationic peptides. Furthermore, some peptides are at risk of precipitation when diluted into MHB medium, which can be avoided via the addition of BSA and acetic acid. However, the use of MHB-II is favorable to imitate the in vivo conditions as much as possible. Both media were tested with and without the addition of BSA and acetic acid by trial and error. The use of pure MHB-II was compatible with S3(B) and its fatty acid analogues, and therefore was chosen for the MIC determinations. Noticeably, MHB-I with BSA and acetic acid led to precipitation of lipopeptides in the present work.
(§5) Cation-adjusted Mueller-Hinton broth (MHB-II) media (BD BBLTM Beef extract powder, BD BactoTMCasamino acids, and DIFCO soluble starch was from Becton, Dickinson and Company©, Franklin Lakes, NJ, USA). MHB media supplemented with 0.2% BSA was from Sigma Aldrich (St. Louis, MO, USA) and 0.01% acetic acid from VWR®. The 96 well plate cell-culture cluster, round-bottom, polypropylene plates, and V-shaped 96 well polypropylene plates were purchased from Corning® Inc., Costar®, Corning, NY, USA. Microseal® film was obtained from Bio-Rad Laboratories, Inc., Hercules, CA, USA. A VersaMaxTM Tunable Microplate Reader (Molecular Devices LLC, Sunnyvale, CA, USA) was used and the data were evaluated on a Softmax® Pro (Molecular Devices LLC).
(§6) The MIC experiments were performed according to a protocol adapted from Wiegand et al., with minor modifications. The MICs were determined in triplicate. The peptides were dissolved in Milli-Q water to produce 10 mg/mL stock solutions in small glass containers. The bacterial isolates to be tested were streaked onto agar plates to obtain single colonies, and the plates were incubated at 37 °C for 18–24 h. The strains tested were S. aureus ATCC 29213, P. aeruginosa ATCC 27853, E. coli ATCC 25922, A. baumannii ATCC 19606, and K. pneumonia ATCC 13883. Test compounds were prepared in 2-fold dilutions in 50 μL volumes in polypropylene microtiter plates. Bacterial cultures grown to OD600 = 0.1–0.4 were diluted to a desired OD600 of 0.001–0.002 corresponding to 1 × 10^6 CFU/mL. Next, 50 μL bacterial suspension was added to the microtiter plates, giving a final bacterial inoculum of 5 × 10^5 CFU/mL per well. The plates were incubated at 37 °C for 18–24 h. […] The MIC values were visually evaluated, and the MIC was set to the lowest concentration […] based on triplicate measurements. […]

In a further data set the test system is P. aeruginosa ATCC 27853. Format: cell-based, Pseudomonas aeruginosa. The conditions noted are these: MHB-II, inoculum 5 × 10^5 CFU/mL, 37 °C, 18–24 h, visual read-out, triplicate. The method, then: as §1, §2, §3
Another data set has as its system A. baumannii ATCC 19606. It counts as cell-based, Acinetobacter baumannii. The settings on record: MHB-II, inoculum 5 × 10^5 CFU/mL, 37 °C, 18–24 h, visual read-out, triplicate. How it is done:
as §1, §2, §3

A further data set relates to K. pneumonia ATCC 13883. Format: cell-based, Klebsiella pneumoniae. The conditions noted are these: K. pneumoniae ATCC 13883; MHB-II, inoculum 5 × 10^5 CFU/mL, 37 °C, 18–24 h, visual read-out, triplicate. How it is done:
as §4, §5, §6

Another data set concerns human erythrocytes. Description: Hemolysis of red blood cells. The conditions noted are these: 1 h; for %H, percent hemolytic activity against red blood cells at 150 μM: human erythrocytes, 0.5% v/v RBC suspension in PBS, peptide 150 μM, 37 °C, absorbance 414 nm, melittin positive control, triplicate. The method, then:
The hemolysis experiments were performed according to the protocol described in Reference. The peptides were tested at concentrations from 2.35–150 μM, using melittin as positive control and PBS as negative control. One premade tablet of PBS was dissolved in 200 mL Milli-Q water. The solution was kept in the refrigerator for a maximum of two days. The day before the test, the positive control wells of the 96 well polypropylene plates were precoated with 150 μL of melittin 5 μM solution in PBS. The solution was prepared in Protein LoBind Eppendorf tubes. The day of the test, the solution was discarded and the wells were washed three times with 150 μL PBS. A melittin 2.50 μM solution in PBS was prepared in Protein LoBind Eppendorf tubes—500 μL for every plate to be used. The mass of the peptide needed to reach a final concentration of 300 μM (to start testing down from 150 μM) was calculated, since a volume of 500 μL was desirable. […] The peptides were dissolved in PBS and tested in triplicate.
In a 96 well polypropylene plate, 150 μL of peptide solution was transferred to three wells in Row A. Therefore, each plate could accommodate up to four peptides. A 2-fold serial dilution of the peptides was obtained by transferring 75 μL of the solutions from Row A to the corresponding wells in Row B, mixing a couple of times. From Row B, 75 μL was transferred to Row C and so on until Row G, where 75 μL was discarded after mixing. Volumes of 75 μL melittin (2.50 μM) was transferred to the positive control wells in H1–H6. Preparation of the RBC suspension: 1 mL of whole blood was transferred to a cryotube with 3 mL of PBS, and then it was gently mixed and centrifuged for 8 min at 3000 rpm. The supernatant was discarded, and the process was repeated twice; with 4 mL at 3000 rpm and 4 mL at 4000 rpm, respectively. From the final RBC pellet, 40 μL was transferred to 8 mL of PBS (multiplied by the number of test plates needed). This corresponded to a 0.5% v/v RBC suspension. The suspension was gently mixed and transferred into a CAPPOrigami reservoir. Using a multichannel pipette, 75 μL of the suspension was transferred into each well and mixed in the direction of increasing concentration. The control wells were mixed separately. The plates were covered with BioradMicroseal foil and incubated at 37 °C for 1 h. The plates (maximum two) were centrifuged for 10 min at 4000 rpm, followed by transferring of supernatant (60 μL) from each well into the corresponding wells in a clear ELISA plate. The absorbance (A) of each well was measured at λ = 414 nm using the software program Softmax(R) Pro.

Molecules are shown by their SMILES. ≈ marks a conversion by molar mass, not a printed value. Where a SMILES comes first, the peptide text is derived from it. [ ]: non-standard residue; d: D form. The star is where a group is joined. 2Nal = N[C@@H](Cc1ccc2ccccc2c1)C(=O)O; Octanoyl = CCCCCCCC(=O)*; Dab = NCC[C@H](N)C(=O)O; AEEA = NCCOCCOCC(=O)O Bounds are passed on as bounds.

Consider `CCCCCCCC(=O)NCC[C@@H]1NC(=O)[C@H](CCN)NC(=O)[C@H](CCCNC(=N)N)NC(=O)[C@H](Cc2ccc3ccccc3c2)NC(=O)[C@H](CCN)NC(=O)[C@H](CC(N)=O)NC(=O)[C@H](CCN)NC(=O)[C@H](Cc2ccc3ccccc3c2)NC(=O)COCCOCCNC1=O` [(C8)^5] (cyclo([Dab][2Nal]R[Dab][Dab](Octanoyl)[AEEA][2Nal][Dab]N)), for which the “Minimum inhibitory concentration, SA” value in the data set with S. aureus ATCC 29213 is 8 µg/mL (≈ 5.99 µM). For the same compound, the “Minimum inhibitory concentration, EC” value in the data set with E. coli ATCC 25922 was 16 µg/mL (≈ 12 µM). For the same compound, the “Minimum inhibitory concentration, PA” value in the data set with P. aeruginosa ATCC 27853 was determined as 8 µg/mL (≈ 5.99 µM). In addition, in the data set on A. baumannii ATCC 19606, the “Minimum inhibitory concentration, AB” value came to 16 µg/mL (≈ 12 µM). Moreover, in the data set on K. pneumonia ATCC 13883, the “Minimum inhibitory concentration, KP” value was greater than 64 µg/mL. Moreover, the “%H, percent hemolytic activity against red blood cells at 150 μM” value in the data set on human erythrocytes was found to be 42%; in the data set with human erythrocytes (listed as (C8)^7) it was 56%. In addition, in the data set with human erythrocytes (red cells of human), the “HD50 (hemolysis)” value was greater than 150 µM.
